Test results reported in patent US10179816B2, “Pharmaceutical compositions comprising an antibody which binds the human anti-Müllerian hormone receptor type II” (LABORATOIRE FRANCAIS DU FRACTIONNEMENT DES BIOTECHNOLOGIES, priority 2011, dated 2019).
“And” between values parts separate entries of the source, which are not always exact repeats. Identical values can stand only once. “Also recorded” adds a separate entry of the source.

Tests used:
[1] = test system: Cov434-AMHRII Asc1a5 (cell line of human ovarian cancer transfected with cDNA AMHRII); assay: Anti-tumour activity of 3C23K alone or with carboplatin in Cov434-AMHRII Asc1a5 xenograft (tumour volume, T/C ratio, statistical analysis); format: in vivo, female Swiss nude mouse; conditions: for Anti-tumour activity (in words): carboplatin study, comparator as stated in the sentence
Method: The 3C23K antibody was evaluated according to the following scheme: 2 times per week for 6 weeks, for a total of 12 injections at about 10 mg/kg/injection, said administration regimen being designated below as “Q3-4D12”. Another group of mice was treated with an irrelevant antibody LFB-R565, administered at about 10 mg/kg/injection, according to the regimen Q3-4D12.
Carboplatin was evaluated, at a sub-optimum dose, i.e. about 60 mg/kg/injection, according to the following scheme: once a week, for 4 weeks, said administration regimen being designated below as “Q7D4”.
Carboplatin was also evaluated in combination with the 3C23K antibody or with the irrelevant antibody LFB-R565. Carboplatin was administered at about 60 mg/kg/injection according to the Q7D4 regimen and the 3C23K antibody or the irrelevant antibody LFB-R565 at about 10 mg/kg/injection according to the regimen Q3-4D12.
The mice were randomized on D11, when the volume of the tumours was between 50 and 158 mm^3, and the treatments began on D13 (9 mice per group).
The tumours were usually measured twice weekly.
The curves of the individual volume of the tumours were plotted.
In one experiment with 9 mice per group, the curves and analyses were therefore stopped when fewer than 8 values per group had been obtained (8 mice alive).
A Kruskal-Wallis test was also carried out.

[2] = Body weight of the mice, carboplatin combination study; format: in vivo; conditions: for Individual body weight of the mice: one value per mouse
From the text: Moreover, to identify whether the treatment has a toxic effect, the weight of the mice was monitored individually once a week.

[3] = test system: Cov434-AMHRII Asc1a5 tumour cells;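 further: control mice received NaCl solution, survival endpoint was euthanasia once tumour volume hit 2000 mm^3 or on ethical grounds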
From the text: A solution of NaCl was used as the control.
(§1) The animals were sacrificed when the tumour volumes reached 2000 mm^3 or for ethical reasons. The curves of mean values and median values as well as the statistical analyses were stopped when 20% of the mice in the group were dead.

[4] = test system: Cov434-AMHRII Asc1a5 tumour cells (a cell line of human ovarian cancer); assay: Anti-tumour activity of 3C23K alone or with paclitaxel in Cov434-AMHRII Asc1a5 xenograft (tumour volume, T/C ratio, statistical analysis); conditions: for Kruskal-Wallis Test: contrast vs control; for Individual tumour volume: individual mice;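 on all read-outs here: subcutaneous Cov434-AMHRII Asc1a5 xenografts in female Swiss nude mice, tumour volume from length×width×height/2 in mm^3, randomized D13, dosing from D14, 8 mice per group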
Method: Female Swiss nude mice (Harlan Laboratories) were injected subcutaneously (s.c.) with 7.10^6 cells of Cov434-AMHRII Asc1a5 (cell line of human ovarian cancer transfected with cDNA AMHRII) in Matrigel (1:1 ratio) under a volume of 150 μL on day 0 (D0).
The mice were randomized on D13, when the volume of the tumours was between 58 and 150 mm^3, and the treatments began on D14 (8 mice per group).
The tumours were usually measured twice weekly. Tumour volume (TV) was calculated using the following formula, in which the length corresponds to the largest of the tumour diameters, the width corresponds to the smallest of the tumour diameters and the tumour height: TV (mm^3)=(length×width×height)/2.
In addition, for each group, curves of tumour growth were plotted using the calculated mean tumour volumes or the median tumour volumes.
as §1
In one experiment with 8 mice per group, the curves and analyses were stopped when fewer than 7 values per group had been obtained (7 mice alive).
The statistical differences between the different groups were analysed by ANOVA comparison using the Statgraphics centurion XV software.
The ANOVA table breaks down the variance into two components: an inter-group component and an intra-group component. The ratio F is the ratio of the inter-group estimate to the intra-group estimate. When the P value of test F is greater than or equal to 0.05, there is no statistically significant difference between the mean values of the two groups, with a confidence level of 95%. P values less than 0.05 indicate a significant difference between the mean values of the two groups with a confidence level of 95%.
A Kruskal-Wallis test was also carried out. When the P value is greater than or equal to 0.05, there is no statistically significant difference between the median of the two groups, with a confidence level of 95%. P values less than 0.05 indicate a significant difference between the medians of the two groups with a confidence level of 95%.
The treatment is initiated on day 14 after injection.

[5] = D11, randomization, before treatment
[6] = Day 13, randomization, before treatment

## N.N.O=C([O-])C1(C(=O)[O-])CCC1.[Pt+2] [carboplatin, reference compound]
[1]; [5]
  Individual tumour volume: 53 mm^3 and 142 mm^3 and 61 mm^3 and 102 mm^3 and 90 mm^3 and 72 mm^3 and 81 mm^3 and 70 mm^3 and 114 mm^3
  Mean tumour volume: 87 mm^3
  Median tumour volume: 81 mm^3
[1]; D14
  Individual tumour volume: 104 mm^3 and 210 mm^3 (2×) and 162 mm^3 and 126 mm^3 and 123 mm^3 and 75 mm^3 and 134 mm^3 and 168 mm^3
  Mean tumour volume: 146 mm^3
  Median tumour volume: 134 mm^3
[1]; D18
  Individual tumour volume: 98 mm^3 and 173 mm^3 and 112 mm^3 (2×) and 336 mm^3 and 248 mm^3 and 140 mm^3 and 90 mm^3 (2×)
  Mean tumour volume: 155 mm^3
  Median tumour volume: 112 mm^3
[1]; D22
  Individual tumour volume: 378 mm^3 and 126 mm^3 and 360 mm^3 and 324 mm^3 and 363 mm^3 and 270 mm^3 and 156 mm^3 and 198 mm^3 and 168 mm^3
  Mean tumour volume: 260 mm^3
  Median tumour volume: 270 mm^3
[1]; D25
  Individual tumour volume: 140 mm^3 and 240 mm^3 and 270 mm^3 and 616 mm^3 and 152 mm^3 and 358 mm^3 and 98 mm^3 and 243 mm^3 and 210 mm^3
  Mean tumour volume: 258 mm^3
  Median tumour volume: 240 mm^3
[1]; D29
  Individual tumour volume: 270 mm^3 and 200 mm^3 and 360 mm^3 (2×) and 768 mm^3 and 363 mm^3 and 168 mm^3 and 420 mm^3
  Mean tumour volume: 344 mm^3
  Median tumour volume: 360 mm^3
[1]; D32
  Individual tumour volume: 351 mm^3 and 243 mm^3 and 578 mm^3 and 864 mm^3 and 653 mm^3 and 504 mm^3 and 220 mm^3 and 462 mm^3
  Mean tumour volume: 461 mm^3
  Median tumour volume: 462 mm^3
[1]; D36
  Individual tumour volume: 630 mm^3 and 424 mm^3 and 1148 mm^3 and 1610 mm^3 and 893 mm^3 and 462 mm^3 and 308 mm^3 and 774 mm^3
  Mean tumour volume: 760 mm^3
  Median tumour volume: 630 mm^3
[1]; D39
  Individual tumour volume: 660 mm^3 and 484 mm^3 and 1134 mm^3 and 1495 mm^3 and 1488 mm^3 and 447 mm^3 and 347 mm^3 and 910 mm^3 and 423 mm^3
  Mean tumour volume: 821 mm^3
  Median tumour volume: 660 mm^3
[1]; D43
  Individual tumour volume: 864 mm^3 and 592 mm^3 and 1881 mm^3 and 2112 mm^3 and 2038 mm^3 and 882 mm^3 and 438 mm^3 and 1105 mm^3 and 672 mm^3
  Mean tumour volume: 1176 mm^3
  Median tumour volume: 882 mm^3
[1]; D46
  Individual tumour volume: 1071 mm^3 and 501 mm^3 and 2205 mm^3 and 810 mm^3 and 378 mm^3 and 1450 mm^3 and 878 mm^3
[1]; D49
  Individual tumour volume: 1568 mm^3 and 819 mm^3 and 1125 mm^3 and 480 mm^3 and 1650 mm^3 and 980 mm^3
[1]
  Anti-tumour activity (in words): anti-tumour effect; also recorded: exerts anti-tumour activity
[1]; listed as Carboplatin
  Anti-tumour activity (in words): significant anti-tumour activity
[1]; relative to Control group, D11 (before treatment)
  T/C ratio: 89%
[1]; relative to Control group, D14
  T/C ratio: 82%
[1]; relative to Control group, D18
  T/C ratio: 52%
[1]; relative to Control group, D22
  T/C ratio: 69%
[1]; relative to Control group, D25
  T/C ratio: 54%
[1]; relative to Control group, D29
  T/C ratio: 56%
[1]; relative to Control group, D32
  T/C ratio: 45%
[1]; relative to Control group, D36
  T/C ratio: 40%
[1]; relative to LFB-R565 group, D11 (before treatment)
  T/C ratio: 100%
[1]; relative to LFB-R565 group, D14
  T/C ratio: 87%
[1]; relative to LFB-R565 group, D18
  T/C ratio: 65%
[1]; relative to LFB-R565 group, D22
  T/C ratio: 100%
[1]; relative to LFB-R565 group, D25
  T/C ratio: 59%
[1]; relative to LFB-R565 group, D29
  T/C ratio: 52%
[1]; relative to LFB-R565 group, D32
  T/C ratio: 67%
[1]; relative to LFB-R565 group, D36
  T/C ratio: 35%
[2]; D11 (Sep. 19, 2011)
  Individual body weight of the mice: 22.3 (2×) and 25.8 and 23.0 and 27.1 and 23.3 and 24.5 and 22.7 and 20.4
[2]; D18 (Sep. 26, 2011), in g (unit assumed)
  Individual body weight of the mice: 22.2 and 24.6 and 22.6 and 26.1 and 24.4 and 25.4 and 23.6 and 20.3 and 22.0
[2]; D25 (Oct. 3, 2011)
  Individual body weight of the mice: 27.6 and 28.3 and 25.6 (2×) and 32.7 and 27.0 and 29.4 and 24.2 and 26.0
[2]; D32 (Oct. 10, 2011)
  Individual body weight of the mice: 23.7 and 24.5 and 23.6 (2×) and 28.0 and 23.1 (2×) and 21.1 and 20.2
[2]; D39 (Oct. 17, 2011), in g (unit assumed)
  Individual body weight of the mice: 24.3 and 23.9 and 25.1 and 27.2 and 25.4 and 22.4 and 20.0 and 21.0 and 23.3
[2]; D46 (Oct. 24, 2011)
  Individual body weight of the mice: 25.4 and 25.7 (2×) and 26.4 and 21.7 and 21.0 and 25.0
[2]; Day 11 (before treatment)
  Mean body weight of the mice: 23.5 g
[2]; Day 18
  Mean body weight of the mice: 23.5 g
[2]; Day 25
  Mean body weight of the mice: 27.4 g
[2]; Day 32
  Mean body weight of the mice: 23.4 g
[2]; Day 39
  Mean body weight of the mice: 23.6 g
[2]; carboplatin study
  Effect on body weight / toxic effect (in words): not regarded as a toxic effect
[2]; on D32 in comparison with D25, after the third injection of carboplatin
  Decrease in body weight: about 15%

## CC(=O)O[C@H]1C(=O)[C@@]2(C)[C@H]([C@H](OC(=O)c3ccccc3)[C@]3(O)C[C@H](OC(=O)[C@H](O)[C@@H](NC(=O)c4ccccc4)c4ccccc4)C(C)=C1C3(C)C)[C@]1(OC(C)=O)CO[C@@H]1C[C@@H]2O [paclitaxel, reference compound]
[3]; contrast vs control
  Survival parameter: logrank test chi-squared: 0.04
[3]; group of 8 mice
  Survival parameter Mean: 45 days
  Survival parameter Median: 45 days
[3]; individual mice, experiment ended on day 83
  survival parameter: 34 Days and 41 Days (2×) and 45 Days (2×) and 51 Days (2×) and 55 Days
[3]; mouse, in vivo
  Statistical analysis based on the survival parameter (in words): does not have an activity that is significantly different from that of the control
[4]; D13
  Kruskal-Wallis Test: 0.04
[4]; D20
  Kruskal-Wallis Test: 0.47
[4]; D20 to D41
  Statistical analysis of tumour volume (in words): does not have an activity that is significantly different from that of the control
[4]; D24
  Kruskal-Wallis Test: 0.28
[4]; D27
  Kruskal-Wallis Test: 1.10
[4]; D31
  Kruskal-Wallis Test: 0.89
[4]; D35
  Kruskal-Wallis Test: 0.10
[4]; D41
  Kruskal-Wallis Test: 0.20
[4]; [6]
  Mean tumour volume: 97 mm^3
  Median tumour volume: 90 mm^3
[4]; Day 13
  Individual tumour volume: 126 mm3 and 117 mm3 and 98 mm3 and 83 mm3 (2×) and 66 mm3 and 144 mm3 and 58 mm3
[4]; Day 20
  Mean tumour volume: 226 mm^3
  Median tumour volume: 228 mm^3
  Individual tumour volume: 424 mm3 and 243 mm3 and 240 mm3 and 280 mm3 and 170 mm3 and 126 mm3 and 217 mm3 and 105 mm3
[4]; Day 24
  Mean tumour volume: 313 mm^3
  Median tumour volume: 270 mm^3
  Individual tumour volume: 756 mm3 and 257 mm3 and 356 mm3 and 284 mm3 and 380 mm3 and 180 mm3 (2×) and 110 mm3
[4]; Day 27
  Median tumour volume: 336 mm^3
  Individual tumour volume: 896 mm3 and 325 mm3 and 386 mm3 and 255 mm3 and 560 mm3 and 347 mm3 and 270 mm3 and 198 mm3
[4]; Day 31
  Mean tumour volume: 589 mm^3
  Median tumour volume: 415 mm^3
  Individual tumour volume: 1530 mm3 and 420 mm3 and 673 mm3 and 410 mm3 (2×) and 720 mm3 and 358 mm3 and 192 mm3
[4]; Day 35
  Mean tumour volume: 1176 mm^3
  Median tumour volume: 986 mm^3
  Individual tumour volume: 2706 mm3 and 699 mm3 and 1200 mm3 and 1008 mm3 and 1653 mm3 and 965 mm3 and 823 mm3 and 351 mm3
[4]; Day 41
  Mean tumour volume: 1390 mm^3
  Median tumour volume: 1309 mm^3
  Individual tumour volume: 1064 mm3 and 2380 mm3 and 1309 mm3 and 1389 mm3 and 2269 mm3 and 884 mm3 and 437 mm3
[4]; Day 45
  Individual tumour volume: 1632 mm3 and 2040 mm3 and 2112 mm3 and 1197 mm3 and 798 mm3
[4]; Day 48
  Individual tumour volume: 1536 mm3 and 1323 mm3 and 1232 mm3
[4]; Day 51
  Individual tumour volume: 2166 mm3 and 2112 mm3 and 1348 mm3
[4]; Day 55
  Individual tumour volume: 2132 mm3
[4]; paclitaxel study
  Anti-tumour activity (in words): modest inhibition of tumour growth
